Results as given in patent US20100075370A1, “METHOD FOR DETERMINATION OF CELL VIABILITY BY USING FLOW CYTOMETRY WITH FIXED VOLUME ACQUISITION” (TUMORTEC GMBH, priority 2006, published 2010).

Tested on: patient samples (pBMC from CLL patients)
Assay: DiSC assay, chemosensitivity index Ci
Assay type: cell-based, human
Description: (2) A more complex standardization is the calculation of an index. In case of the chemosensitivity testing it is not a single value that has to be standardized. The chemosensitivity towards a drug is tested with several concentrations of the drug in parallel in a cell culture assay. […] This method was adopted for the present invention from the analysis of DiSC assays (Staib et al., British Journal of Haematology, 2005, 128, 783-791). The Chemosensitivity Index Ci was designed as a prognostic index for ex vivo chemosensitivity assays. Assay results were expressed as percent tumor cell survival (% TCS). The dose-response curve as a function of the dose-response relationship may be mathematically described by a […] regression model (FIG. 4). The dose-response curve was defined as CS=c1*e^conc*c2 % with cell survival (CS), drug concentration (conc) and the constants c1 and c2. c1 represented the y-axis distance and c2 the slope of the curve. The area under the curve (AUC) as an exact measure for the total dose response relation was defined as AUC=−e^c1/c2, on condition that c2 is less than 0, otherwise AUC is infinite. The chemosensitivity index, Ci, was set up as Ci=e^−AUC*c with a domain between 0 and 1. The drug-specific constant c was used for adjusting the Ci-value of 0.5 as the cut-off point between resistance and sensitivity. The constant c was defined as
with AUCcut-off as the smallest AUC value among all clinical non-responding patients of the training data set. Obviously, all cytotoxic agents given for treatment were ineffective in these patients. The cut-off Ci value must be adjusted to 0.5 for prognosis of the effect of the drug on a patient in vivo when the drug is tested on said patient's cells in vitro using the method of the present invention. Ci values of 0-0.5 indicated resistance and values above 0.5 predicted sensitivity against the drug tested.
The chemosensitivity index Ci based on the DiSC assay as described in Staib, P. et al., Br. J. Haematol., 128(6):783-91 (2005) is known to have a very high accuracy of prediction (98%) for the clinical outcome of a particular chemotherapy (Staib, P. et al., Br. J. Haematol., 128(6):783-91 (2005)). In order to evaluate the accuracy of the cytotoxicity assay as described in example 1 (“new method”), the Ci determination was performed for assay results of patient samples analyzed with the traditional DiSC assay and—in parallel—with the new assay method described in example 1. In total, 22 patient samples were analyzed. Fludara® was used in both assays. The cytotoxicity assay of example 1 was performed as described therein, and the DiSC assay was performed as described in Staib, P. et al., Br. J. Haematol., 128(6):783-91 (2005).

Question: Which results are given for `Nc1nc(F)nc2c1ncn2[C@@H]1O[C@H](COP(=O)(O)O)[C@@H](O)[C@@H]1O` [Fludarabine phosphate, 2-Fluoro-9-(5-O-phosphono-β-D-arabinofuranosyl)-9H-purin-6-amine]?
Answer: Ci (DiSC-Assay) (patient #1): 0.99; prediction (DiSC-Assay) (patient #1): sensitive (values above 0.5 predicted sensitivity against the drug tested); Ci (DiSC-Assay) (patient #2): 0.98; prediction (DiSC-Assay) (patient #2): sensitive (values above 0.5 predicted sensitivity against the drug tested); Ci (DiSC-Assay) (patient #3): 0.97; prediction (DiSC-Assay) (patient #3): sensitive (values above 0.5 predicted sensitivity against the drug tested); Ci (DiSC-Assay) (patient #4): 0.95; prediction (DiSC-Assay) (patient #4): sensitive (values above 0.5 predicted sensitivity against the drug tested); Ci (DiSC-Assay) (patient #5): 0.90; prediction (DiSC-Assay) (patient #5): sensitive (values above 0.5 predicted sensitivity against the drug tested); Ci (DiSC-Assay) (patient #6): 0.89; prediction (DiSC-Assay) (patient #6): sensitive (values above 0.5 predicted sensitivity against the drug tested); Ci (DiSC-Assay) (patient #7): 0.85; prediction (DiSC-Assay) (patient #7): sensitive (values above 0.5 predicted sensitivity against the drug tested); Ci (DiSC-Assay) (patient #8): 0.81; prediction (DiSC-Assay) (patient #8): sensitive (values above 0.5 predicted sensitivity against the drug tested); Ci (DiSC-Assay) (patient #9): 0.75; prediction (DiSC-Assay) (patient #9): sensitive (values above 0.5 predicted sensitivity against the drug tested); Ci (DiSC-Assay) (patient #10): 0.70; prediction (DiSC-Assay) (patient #10): sensitive (values above 0.5 predicted sensitivity against the drug tested); Ci (DiSC-Assay) (patient #11): 0.68; prediction (DiSC-Assay) (patient #11): sensitive (values above 0.5 predicted sensitivity against the drug tested); Ci (DiSC-Assay) (patient #12): 0.61; prediction (DiSC-Assay) (patient #12): sensitive (values above 0.5 predicted sensitivity against the drug tested); Ci (DiSC-Assay) (patient #13): 0.60; prediction (DiSC-Assay) (patient #13): sensitive (values above 0.5 predicted sensitivity against the drug tested); Ci (DiSC-Assay) (patient #14): 0.57; prediction (DiSC-Assay) (patient #14): sensitive (values above 0.5 predicted sensitivity against the drug tested); Ci (DiSC-Assay) (patient #15): 0.55; prediction (DiSC-Assay) (patient #15): sensitive (values above 0.5 predicted sensitivity against the drug tested); Ci (DiSC-Assay) (patient #16): 0.50; prediction (DiSC-Assay) (patient #16): resistant (Ci values of 0-0.5 indicated resistance); Ci (DiSC-Assay) (patient #17): 0.47; prediction (DiSC-Assay) (patient #17): resistant (Ci values of 0-0.5 indicated resistance); Ci (DiSC-Assay) (patient #18): 0.46; prediction (DiSC-Assay) (patient #18): resistant (Ci values of 0-0.5 indicated resistance); Ci (DiSC-Assay) (patient #19): 0.43; prediction (DiSC-Assay) (patient #19): resistant (Ci values of 0-0.5 indicated resistance); Ci (DiSC-Assay) (patient #20): 0.39; prediction (DiSC-Assay) (patient #20): resistant (Ci values of 0-0.5 indicated resistance); Ci (DiSC-Assay) (patient #21): 0.34; prediction (DiSC-Assay) (patient #21): resistant (Ci values of 0-0.5 indicated resistance); Ci (DiSC-Assay) (patient #22): 0.32; prediction (DiSC-Assay) (patient #22): resistant (Ci values of 0-0.5 indicated resistance)
